# According to patent US20230105984A1, “COMPOSITIONS AND METHODS FOR THE TREATMENT OF LIVER DISEASES AND DISORDERS” (AXCELLA HEALTH INC., priority 2019, published 2023):
# Where “and” joins values, the source holds several entries; their conditions need not be identical. Equal values may be shown once.
# Columns and labels:
# [1] = system: human primary hepatocytes; assay: Intracellular lipid accumulation (steatosis) in primary human hepatocytes co-treated with sFA+TNF-α, LipidTOX fluorescence microscopy after 72h; type: cell-based; design: Rx effect (lipid): scale not given here; details: for Rx effect (Lipid: total lipid area subtracted from baseline sFA+TNFa, normalized to nuclei count): 72 h; for Rx effect (lipid): donor 2
# Method: Hepatocyte lipotoxicity appears to be a central driver of hepatic cellular injury via oxidative stress and endoplasmic reticulum (ER) stress. The ability of amino acids combined to therapeutics agents (Rx) to influence steatosis (lipid accumulation) and inflammation in hepatocytes was assessed using human primary hepatocytes purchased from two sources: Lonza and Sekisui Xenotech. […] After 6 hours, cells were washed twice and incubated overnight at 37° C., 5% CO2 in hepatocytes plating media. On day 1, cells were washed twice and incubated for 24h in Hepatocytes defined medium (Corning) supplemented with 2mM Glutamax (Gibco), and 1x Penicillin/Streptomycin in the same conditions described above. […] The values are published in the Human Metabolome Database (Wishart DS, Tzur D, Knox C, et al., HMDB: the Human Metabolome Database. Nucleic Acids Res. 2007 Jan; 35(Database issue):[…]-6. 17202168; which is hereby incorporated by reference in its entirety). […] After 24 hours incubation, media was removed for chemokine analysis (MCP1) and the same co treatment was reapplied for an additional 48 hours for a total of 72 hours. After 72 hours, cells were washed twice with PBS 1x (Gibco), fixed with 4% Paraformaldehyde, and washed twice with PBS 1x (100 ul). […] The LipidTOXTM neutral lipid stain has an extremely high affinity for neutral lipid droplets that was detected by fluorescence microscopy using a high content imager (Molecular Devices). Lipid was normalized to the specific per well cell density determined by nuclei count.
# MCP1/CCL2 secretion = MCP1/CCL2 secretion by primary human hepatocytes co-treated with sFA+TNF-α, ELISA after 24h; type: cell-based; design: Rx effect / Rx effect (MCP1): scale not given here; details: for Rx effect: MCP1; for MCP1 level / MCP1 secretion compared to baseline (sFA+TNF-α): Results 1, donors 1 and 2, AA compositions at 20X; for MCP1 level / MCP1 secretion level compared to the baseline (sFA+TNF-α): Results 2, donor 2
# Method: Hepatocyte lipotoxicity appears to be a central driver of hepatic cellular injury via oxidative stress and endoplasmic reticulum (ER) stress. The ability of amino acids combined to therapeutics agents (Rx) to influence steatosis (lipid accumulation) and inflammation in hepatocytes was assessed using human primary hepatocytes purchased from two sources: Lonza and Sekisui Xenotech. Primary hepatocytes from two healthy human donor were seeded on day 0 at density of 60000 cells in 96 well optical microplates (Thermofisher) in hepatocyte plating media (William's E medium (Gibco) supplemented with 10% heat-inactivated FBS (Atlanta Bio), 2mM Glutamax (Gibco), and 0.2% Primocin (InVivoGen) and incubated for 6 hours at 37° C., 5% CO2. After 6 hours, cells were washed twice and incubated overnight at 37° C., 5% CO2 in hepatocytes plating media. On day 1, cells were washed twice and incubated for 24h in Hepatocytes defined medium (Corning) supplemented with 2mM Glutamax (Gibco), and 1x Penicillin/Streptomycin in the same conditions described above. On day 2, cells were washed twice with DPBS 1X (Gibco) and maintained in amino acid-free WEM (US Biologicals) containing a defined custom amino acid concentration based on the mean physiological concentrations in blood. The values are published in the Human Metabolome Database (Wishart DS, Tzur D, Knox C, et al., HMDB: the Human Metabolome Database. Nucleic Acids Res. 2007 Jan; 35(Database issue):[…]-6. 17202168; which is hereby incorporated by reference in its entirety). […] Cells were maintained in this defined pretreatment media for 24 hours at 37° C., 5% CO2. […] After 24 hours incubation, media was removed for chemokine analysis (MCP1) and the same co treatment was reapplied for an additional 48 hours for a total of 72 hours. Human CCL2 (MCP-1) was measured by ELISA (Human […] DuoSet ELISA, R&D Systems) at 1/20 dilution in 1X Reagent Diluent (Reagent Ancillary Kit 2, R&D Systems). Lipid was normalized to the specific per well cell density determined by nuclei count.
# [2] = Results 1, donors 1 and 2, AA compositions at 20X
compound,measurement,setting,value
"O=C(O)c1ccnc(N2CC(O)(c3ccc(OCc4c(-c5c(Cl)cccc5Cl)noc4C4CC4)cc3Cl)C2)c1 [Cilofexor, 2-(3-(2-chloro-4-((5-cyclopropyl-3-(2,6-dichlorophenyl)isoxazol-4-yl)methoxy)phenyl)-3-hydroxyazetidin-1-yl)isonicotinic acid]","Rx effect (Lipid: total lipid area subtracted from baseline sFA+TNFa, normalized to nuclei count)","[1]; Donor 1, Rx Conc. 0.031 µM",0.019
same,"Rx effect (Lipid: total lipid area subtracted from baseline sFA+TNFa, normalized to nuclei count)","[1]; Donor 1, Rx Conc. 0.125 µM",0.072
same,"Rx effect (Lipid: total lipid area subtracted from baseline sFA+TNFa, normalized to nuclei count)","[1]; Donor 1, Rx Conc. 0.500 µM",0.027
same,"Rx effect (Lipid: total lipid area subtracted from baseline sFA+TNFa, normalized to nuclei count)","[1]; Donor 1, Rx Conc. 2.000 µM",0.195
same,"Rx effect (Lipid: total lipid area subtracted from baseline sFA+TNFa, normalized to nuclei count)","[1]; Donor 2, Rx Conc. 0.031 µM",-0.049
same,"Rx effect (Lipid: total lipid area subtracted from baseline sFA+TNFa, normalized to nuclei count)","[1]; Donor 2, Rx Conc. 0.125 µM",0.031
same,"Rx effect (Lipid: total lipid area subtracted from baseline sFA+TNFa, normalized to nuclei count)","[1]; Donor 2, Rx Conc. 0.500 µM",0.104
same,"Rx effect (Lipid: total lipid area subtracted from baseline sFA+TNFa, normalized to nuclei count)","[1]; Donor 2, Rx Conc. 2.000 µM",0.050
same,lipid level compared to baseline (sFA+TNFa),[1]; [2],no changes
same,lipid level compared to baseline (sFA+TNFa),"[1]; Results 2, donor 2",no changes in lipid level
same,Rx effect (lipid),[1]; Rx 0.0313 µM,-0.110
same,Rx effect (lipid),[1]; Rx 0.125 µM,0.001
same,Rx effect (lipid),[1]; Rx 0.5 µM,0.088
same,Rx effect (lipid),[1]; Rx 2 µM,0.080
same,Rx effect,"MCP1/CCL2 secretion; donor 1, Rx 0.031 µM",-0.009
same,Rx effect,"MCP1/CCL2 secretion; donor 1, Rx 0.125 µM",0.582
same,Rx effect,"MCP1/CCL2 secretion; donor 1, Rx 0.500 µM",1.210
same,Rx effect,"MCP1/CCL2 secretion; donor 1, Rx 2.000 µM",1.898
same,Rx effect,"MCP1/CCL2 secretion; donor 2, Rx 0.125 µM",0.28
same,Rx effect,"MCP1/CCL2 secretion; donor 2, Rx 0.500 µM",0.47
same,Rx effect,"MCP1/CCL2 secretion; donor 2, Rx 2.000 µM",0.69 and 0.695
same,MCP1 level / MCP1 secretion compared to baseline (sFA+TNF-α),MCP1/CCL2 secretion,slight increase
same,MCP1 level / MCP1 secretion level compared to the baseline (sFA+TNF-α),MCP1/CCL2 secretion,no change or a slight increase in MCP1 secretion level
same,Rx effect (MCP1),"MCP1/CCL2 secretion; donor 2, Rx 0.0313 µM",-0.265
same,Rx effect (MCP1),"MCP1/CCL2 secretion; donor 2, Rx 0.125 µM",0.229
same,Rx effect (MCP1),"MCP1/CCL2 secretion; donor 2, Rx 0.5 µM",0.525
same,Rx effect (MCP1),"MCP1/CCL2 secretion; donor 2, Rx 2 µM",0.301
"COc1ccccc1[C@H](Cn1c(=O)n(C(C)(C)C(=O)O)c(=O)c2c(C)c(-c3ncco3)sc21)OC1CCOCC1 [Firsocostat, (R)-2-(1-(2-(2-methoxyphenyl)-2-((tetrahydro-2H-pyran-4-yl)oxy)ethyl)-5-methyl-6-(oxazol-2-yl)-2,4-dioxo-1,4-dihydrothieno[2,3-d]pyrimidin-3(2H)-yl)-2-methylpropanoic acid]","Rx effect (Lipid: total lipid area subtracted from baseline sFA+TNFa, normalized to nuclei count)","[1]; Donor 1, Rx Conc. 0.063 µM",-0.210
same,"Rx effect (Lipid: total lipid area subtracted from baseline sFA+TNFa, normalized to nuclei count)","[1]; Donor 1, Rx Conc. 1.000 µM",-0.412
same,"Rx effect (Lipid: total lipid area subtracted from baseline sFA+TNFa, normalized to nuclei count)","[1]; Donor 1, Rx Conc. 4.000 µM",-0.317
same,"Rx effect (Lipid: total lipid area subtracted from baseline sFA+TNFa, normalized to nuclei count)","[1]; Donor 2, Rx Conc. 0.063 µM",-0.246
same,"Rx effect (Lipid: total lipid area subtracted from baseline sFA+TNFa, normalized to nuclei count)","[1]; Donor 2, Rx Conc. 1.000 µM",-0.449
same,"Rx effect (Lipid: total lipid area subtracted from baseline sFA+TNFa, normalized to nuclei count)","[1]; Donor 2, Rx Conc. 4.000 µM",-0.485
same,lipid level compared to baseline (sFA+TNFa),[1]; [2],slight reduction in lipid level
same,lipid level compared to baseline (sFA+TNFa),"[1]; Results 2, donor 2",slight reduction in lipid level
same,Rx effect (lipid),[1]; Rx 0.0625 µM,-0.147
same,Rx effect (lipid),[1]; Rx 1 µM,-0.404
same,Rx effect (lipid),[1]; Rx 4 µM,-0.458
same,Rx effect,"MCP1/CCL2 secretion; donor 1, Rx 0.063 µM",-0.233
same,Rx effect,"MCP1/CCL2 secretion; donor 1, Rx 1.000 µM",-0.827
same,Rx effect,"MCP1/CCL2 secretion; donor 1, Rx 4.000 µM",-0.479
same,Rx effect,"MCP1/CCL2 secretion; donor 2, Rx 0.063 µM",-0.319
same,Rx effect,"MCP1/CCL2 secretion; donor 2, Rx 1.000 µM",-0.614
same,Rx effect,"MCP1/CCL2 secretion; donor 2, Rx 4.000 µM",-0.775
same,MCP1 level / MCP1 secretion compared to baseline (sFA+TNF-α),MCP1/CCL2 secretion,slight reduction in MCP1 secretion
same,MCP1 level / MCP1 secretion level compared to the baseline (sFA+TNF-α),MCP1/CCL2 secretion,no change or a slight reduction in MCP1 secretion level
same,Rx effect (MCP1),"MCP1/CCL2 secretion; donor 2, Rx 0.0625 µM",-0.147
same,Rx effect (MCP1),"MCP1/CCL2 secretion; donor 2, Rx 1 µM",-0.682
same,Rx effect (MCP1),"MCP1/CCL2 secretion; donor 2, Rx 4 µM",-0.510
